From US20260014203A1, “USE OF COMPOSITION INCLUDING MESENCHYMAL STEM CELLS FOR ALLEVIATING MYELOFIBROSIS” (MEDICAL AND PHARMACEUTICAL INDUSTRY TECHNOLOGY AND …, priority 2022, published 2026) come the findings set out here.

One experiment has as its system IDO gene in UCMSCs. The experiment is described as follows: Priming of UCMSCs with IFN-γ in combination with a supplement, IDO gene mRNA by real-time PCR. Conditions: 250 U/mL of IFN-γ in combination with the supplement, 72 hours; compared with comparative group (IFN-γ only). In kind it is cell-based, human. The procedure: In order to determine whether addition of a supplement, which is selected from one of vitamin, steroid, cytokine, double-stranded RNA, and histone deacetylase (HDAC) inhibitor, enhanced the effect of IFN-γ in the priming of UCMSCs, the following experiments were conducted.
In brief, UCMSCs culture as described in Item 2 of the General Experimental Materials were divided into 8 groups, namely, a normal control group (NCG), a comparative group (CG) and 6 experimental groups, i.e., experimental group 1 to experimental group 6 (EG1 to EG6), with the number of UCMSCs in each group being 5.8×10^5 cells. Next, the UCMSCs in each group were subjected to priming, in which the UCMSCs in the CG were treated with 250 U/mL of IFN-γ for 72 hours, the UCMSCs in a respective one of the EG1 to EG6 were treated with 250 U/mL of IFN-γ in combination with 1 μM of retinoic acid, 1 μg/mL of dexamethasone, 10 ng/mL of TNF-α, 25 μg/mL of polyinosinic acid-polycytidylic acid, 0.5 mM of valproic acid, and 1 μM of budesonide, respectively, for 72 hours, while the UCMSCs in the NCG were not subjected to any treatment and were left to stand for 72 hours.
Background: Real-time PCR tracks product formation cycle by cycle.

The test system of experiment [1] is indoleamine-pyrrole 2,3-dioxygenase (IDO)-expressing UCMSCs. The experiment is described as follows: Priming of UCMSCs with IFN-γ, percentage of IDO-expressing UCMSCs by flow cytometry. In kind it is cell-based, human. How it is done: UCMSCs culture as described in Item 2 of the General Experimental Materials were divided into 6 groups, namely, a control group (CG), and 5 experimental groups, i.e., experimental group 1 to 5 (EG1 to EG5), with the number of UCMSCs in each group being 5.8×10^5 cells. Next, the UCMSCs in the EG1 to EG5 were subjected to priming by treating with different concentrations of IFN-γ, i.e., 50, 100, 200, 250 and 500 U/mL of IFN-γ, respectively, for 72 hours, while the UCMSCs in the CG were not subjected to any treatment. For identification of IDO-expressing UCMSCs, the cells in each group were stained with phycoerythrin-conjugated IDO monoclonal antibody (Manufacturer: Thermo Fisher Scientific; Catalogue no.: 12-9477-42) while phycoerythrin-conjugated mouse IgG1 kappa isotype control (Manufacturer: Thermo Fisher Scientific; Catalogue no.: 12-4714-82) served as the control antibody, followed by subjecting the stained cells to flow cytometry conducted using CytoFLEX Flow Cytometer (Beckman Coulter), so as to determine the percentage of IDO-expressing UCMSCs in each group.
In brief, the UCMSCs culture as described in Item 2 of the General Experimental Materials were divided into 9 groups, namely, three control groups, i.e., control groups 1 to 3 (CG1 to CG3), and 6 experimental groups, i.e., experimental group 1-1 (EG1-1), experimental group 1-2 (EG1-2), experimental group 2-1 (EG2-1), experimental group 2-2 (EG2-2), experimental group 3-1 (EG3-1) and experimental group 3-2 (EG3-2), with the number of UCMSCs in each group being 5.8×10^5 cells. Next, the UCMSCs in the EG1-1, EG2-1, and EG3-1 were subjected to priming by treating with 250 U/mL of IFN-γ for 24 hours, 48 hours, and 72 hours, respectively, the UCMSCs in EG1-2, EG2-2, and EG3-2 were treated with 500 U/mL of IFN-γ for 24 hours, 48 hours, and 72 hours, respectively, while the UCMSCs in the CG1, CG2 and CG3 were not subjected to any treatment and were left to stand for 24 hours, 48 hours, and 72 hours, respectively. […]

Take TNF-α: the “relative mRNA expression level of IDO gene” value in the experiment on IDO gene in UCMSCs was “higher”.

Turning to “IFN-γ: cytokine used for priming of UCMSCs”, the “percentage of IDO-expressing UCMSCs” value was “higher” in experiment [1] (50, 100, 200, 250 and 500 U/mL of IFN-γ, 72 hours, compared with control group, concentration dependent); “higher” in experiment [1] (250 or 500 U/mL of IFN-γ for 24, 48 or 72 hours, compared with the untreated control group of the same time); “higher” in experiment [1] (250 or 500 U/mL of IFN-γ, 72 hours compared with 48 hours and 24 hours).

Take `CCCC(CCC)C(=O)O` [valproic acid]: the “relative mRNA expression level of IDO gene” value in the experiment on IDO gene in UCMSCs is listed as “higher”.

For the compound polyinosinic acid-polycytidylic acid, in the experiment with IDO gene in UCMSCs, the “relative mRNA expression level of IDO gene” value was “higher”.
